Literature values as cited in article PMC3962266 (Journal of medicinal chemistry, 2013).
Values belong to the compound of their own block, whether it stands above or below them.

Key:
[1] = not given; remark: listed apart in the source
[2] = not given; remark: listed apart in the source

Further increase of bleeding risk on addition as combination therapy (added to aspirin): 1%
SMILES: COC(=O)[C@H](c1ccccc1Cl)N1CCc2sccc2C1 [clopidogrel]

Solubility [1]: low solubility
Pharmacokinetic (PK) properties [2]: poor pharmacokinetic (PK) properties
SMILES: CCCCNc1ncc2c(-c3ccc(S(=O)(=O)N4CCOCC4)cc3)nn(C3CCC(O)CC3)c2n1 (stereo not shown) [UNC1062]

Baseline major bleeding risk (gastrointestinal or intracranial): 1–4%
SMILES: CC(=O)Oc1ccccc1C(=O)O [aspirin]
